Laboratory results taken from patent publication US20250011311A1, “AMIDO HETEROAROMATIC COMPOUNDS” (AstraZeneca AB, priority 2022, published 2025).

Experiments:
[1] = target: recombinant 17bHSD13 (N2-K300) (Homo sapiens (Human), UniProt Q7Z5P4); experiment: In Vitro 17bHSD13 Enzyme Assay; format: biochemical; conditions: 80 nM 17bHSD13, 0.5 mM NAD, 20 μM Estradiol, 2.5 h; estradiol to estrone by LC-MS/MS
Protocol: In Vitro 17bHSD13 Enzyme Assay
The enzyme reaction was initiated by addition, using CERTUS-FLEX dispenser (GYGER), of 20 μl of substrate solution containing NAD (SIGMA, N1511) and Estradiol (SIGMA, E8875). […] Final assay conditions were 80 nM of 17bHSD13, 0.5 mM of NAD, 20 μM Estradiol and various concentrations of compound in buffer (5 mM EDTA (TEKNOVA E0306), 0.01% DDM (AFFYMETRIX D310) in 50 mM Tris-Cl, pH 7.4).
(§1) SCIEX LC-MS/MS system: Sample was injected with CTC analytical injector, SHIMATZU LC pumps LC20 and analyzed on the SCIEX API 5000 LCMSMS system with the following settings. […] The mobile phases consist of A (water with 0.2% formic acid) and B (acetonitrile with 0.2% formic acid). The LC gradient profile is as follows: 50% B during 0 to 0.5 min, a linear increase to 100% B during 0.5 to 1 min, hold at 100% B during 1 to 1.6 min then back to 50% B from 1.6 to 2 min. […] Detection was performed on a API 5000 LC/MS/MS system with a triple quadrupole mass spectrometer, a TURBO V ion source, in multiple reaction monitoring (MRM) mode at positive polarity with APCI probe. […] The dwell times were 100 ms for each transition and a depolarization and collision energy of 100 and 40, respectively. Data from MS signals was using area under curve (AUC). Ratio=Estrone/(Estrone+Estradiol)
(§2) […] […] was used for curve fitting and calculation of IC50 values.
(§3) Compound effect was calculated with the formula below;
(§4) where X represents the effect in the presence of test compound, min is DMSO and max is the maximum inhibition of enzyme using a known inhibitor as control.

[2] = target: recombinant 17bHSD4 (M1-N311) (Homo sapiens (Human), UniProt P51659); experiment: In Vitro 17bHSD4 Enzyme Assay; format: biochemical; conditions: 40 nM 17bHSD4, 0.125 mM NAD, 15 μM Estradiol, 1.5 h; NADH fluorescence; read-out: 17HSD17b4 Enzyme assay IC50
Protocol: In Vitro 17bHSD4 Enzyme Assay
10 concentration of compounds (0.2 μl) in DMSO was added to GREINER FLUOTRAC 200 384 well plate (781076) using ECHO dispensing (BECKMAN COULTER). 80 nl of 10 mM Estradiol (SIGMA, E8875) was added using Echo dispensing. The enzyme reaction was initiated by addition, using MULTIDROP COMBI dispensing (THERMO FISHER), of 40 μl of a mix containing recombinant 17bHSD4 (M1-N311) and NAD. Final assay conditions were 40 nM of 17bHSD4, 0.125 mM of NAD, 15 μM Estradiol and various concentrations of compound in buffer (5 mM EDTA (TEKNOVA E0306), 0.01% DDM (AFFYMETRIX D310) in 50 mM Tris-Cl, pH 7.4). After each addition plates were centrifuged for 1 min at 150×g (EPPENDORF, 5810R, A-4-81). NADH formation was measured by fluorescence intensity (FI) (Ex360/Em460) at time zero (to) and at 1.5 h (t1) in a PHERASTAR FSX (BMG LABTECH). FI for each sample was calculated as FI at t1 minus FI at t0.
as §2, §3, §4

[3] = target: over expressed HSD17β13 in HEK293S cells (Homo sapiens (Human), UniProt Q7Z5P4); experiment: In Vitro 17bHSD13 Cell Assay; format: cell-based; conditions: HEK293S cells over expressing HSD17β13; estradiol to estrone conversion, 18 h, LC-MS/MS; read-out: 17bHSD1713 Cell assay IC50
Protocol: In Vitro 17bHSD13 Cell Assay
Inhibition of 17bHSD13 was measured in a cell-based assay with over expressed HSD17β13 in HEK293S cells, measuring estradiol to estrone conversion by LCMS/MS.
Samples were analyzed using LC-MS/MS.
as §1, with “analysed” for “analyzed”
as §2, §3, §4

[4] = target: over expressed HSD17β9 in HEK293S cells (Homo sapiens (Human), UniProt Q92781); experiment: In Vitro 17bHSD9 Cell Assay; format: cell-based; conditions: HEK293S cells over expressing HSD17β9; retinol to retinal conversion, 18 h, LC-MS/MS; read-out: 17bHSD9 Cell assay IC50
Protocol: In Vitro 17bHSD9 Cell Assay
Inhibition of 17bHSD9 was measured in a cell-based assay with over expressed HSD17β9 in HEK293S cells, measuring retinol to retinal conversion by LCMS/MS.
Cells were plated in 384 well plates (GREINER CELL culture plate 384w black/clear Poly-D-Lysine) at 10 K c/w in 30 μl of culture media (DMEM with GLUTAMAX plus 10% FBS). […] After 18 h of cell culturing for 20 μl of media was transferred using BRAVO dispensing robot (AGILENT) to a GREINER PP 384 well plate (781280) and 40 μl of 50% acetonitrile was added. Samples were analyzed using LC-MS/MS.
SCIEX LC-MS/MS system: Sample was injected with CTC analytical injector, SHIMATZU LC pumps LC20 and analysed on the SCIEX API 5000 LCMSMS system with the following settings. Samples were chromatographed on a WATERS, symmetry, C8, 3.5 μm, 2.1×50 mm) column at constant flow rate of 0.5 mL/min. The mobile phases consists of A (water with 0.2% formic acid) and B (acetonitrile with 0.2% formic acid). The LC gradient profile is as follows: 50% B during 0 to 0.1 min, a linear increase to 100% B during 0.1 to 0.8 min, hold at 100% B during 0.8 to 1.5 min then back to 50% B from 1.5 to 1.6 min and hold during run time. The run time was 2 min with retention times of approximately 1.54 and 1.62 min for Retinol and Retinal, respectively. Detection was performed on a API 5000 LC/MS/MS system with a triple quadrupole mass spectrometer, a TURBO V ion source, in multiple reaction monitoring (MRM) mode at positive polarity with ESI probe. The MRM pairs were m/z 269.3 to m/z 93.0 and m/z 285.2 to 161.0. for Retinol and Retinal, respectively. The dwell times were 100 ms for each transition and a depolarization and collision energy of 50 and 25, respectively. Data from MS signals was using area under curve (AUC). Ratio=Retinal/(Retinal+Retinol).
as §2, §3, §4

Chain of over expressed HSD17β13 in HEK293S cells (Q7Z5P4 20-300): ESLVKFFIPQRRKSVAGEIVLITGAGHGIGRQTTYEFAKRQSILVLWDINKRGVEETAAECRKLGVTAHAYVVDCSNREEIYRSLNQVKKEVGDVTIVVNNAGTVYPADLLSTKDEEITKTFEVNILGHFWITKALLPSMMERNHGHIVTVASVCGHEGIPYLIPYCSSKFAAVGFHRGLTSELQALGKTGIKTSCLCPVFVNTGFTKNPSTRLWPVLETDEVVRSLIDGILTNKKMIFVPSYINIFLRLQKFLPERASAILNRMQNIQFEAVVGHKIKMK
Chain of recombinant 17bHSD4 (M1-N311) (P51659 1-311): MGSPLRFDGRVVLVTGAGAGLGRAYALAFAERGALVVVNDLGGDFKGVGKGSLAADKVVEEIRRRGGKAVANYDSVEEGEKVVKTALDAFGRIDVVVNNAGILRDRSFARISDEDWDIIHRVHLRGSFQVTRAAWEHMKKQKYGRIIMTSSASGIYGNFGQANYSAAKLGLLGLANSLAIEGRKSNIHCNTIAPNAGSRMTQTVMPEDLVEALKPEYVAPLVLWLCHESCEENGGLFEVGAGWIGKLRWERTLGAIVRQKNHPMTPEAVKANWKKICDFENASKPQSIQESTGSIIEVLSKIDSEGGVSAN
Chain of recombinant 17bHSD13 (N2-K300) (Q7Z5P4 2-300): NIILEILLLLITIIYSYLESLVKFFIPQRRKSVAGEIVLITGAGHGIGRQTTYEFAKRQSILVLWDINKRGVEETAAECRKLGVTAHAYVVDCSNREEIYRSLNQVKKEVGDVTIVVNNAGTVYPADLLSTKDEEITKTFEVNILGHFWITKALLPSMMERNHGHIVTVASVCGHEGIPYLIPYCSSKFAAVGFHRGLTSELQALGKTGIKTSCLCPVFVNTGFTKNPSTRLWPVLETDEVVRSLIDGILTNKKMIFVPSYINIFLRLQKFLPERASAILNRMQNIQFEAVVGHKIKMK
Chain of over expressed HSD17β9 in HEK293S cells (Q92781 whole entry): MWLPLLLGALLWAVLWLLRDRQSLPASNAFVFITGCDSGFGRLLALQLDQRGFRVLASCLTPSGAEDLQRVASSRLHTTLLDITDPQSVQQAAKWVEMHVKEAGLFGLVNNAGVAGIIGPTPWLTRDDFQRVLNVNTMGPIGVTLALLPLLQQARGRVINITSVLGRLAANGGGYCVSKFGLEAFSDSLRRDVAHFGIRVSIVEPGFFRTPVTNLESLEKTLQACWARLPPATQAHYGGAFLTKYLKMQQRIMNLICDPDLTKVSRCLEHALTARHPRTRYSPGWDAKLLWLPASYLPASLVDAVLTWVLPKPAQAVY

IC50 [1] [nM] | IC50 [2] [nM] | IC50 [3] [nM] | IC50 [4] [nM] | Structure (SMILES)
46 | 3000 | 960 | 15800 | O=C(c1noc(-c2cc(F)c(F)c(O)c2F)n1)N1CC=C(c2ccccc2)CC1 [Example 62, (4-Phenyl-3,6-dihydropyridin-1(2H)-yl)(5-(2,4,5-trifluoro-3-hydroxyphenyl)-1,2,4-oxadiazol-3-yl)methanone]
581 | > 50000 | > 50000 | > 50000 | CC[C@H]1CN(C(=O)c2noc(-c3cc(F)c(F)c(O)c3F)n2)CC(=O)N1 [Example 34, (S)-6-Ethyl-4-(5-(2,4,5-trifluoro-3-hydroxyphenyl)-1,2,4-oxadiazole-3-carbonyl)piperazin-2-one]
1740 | > 50000 | 1480 | > 50000 | O=C(c1noc(-c2cc(F)c(F)c(O)c2F)n1)N1CCOCC1 [Example 39, Morpholino(5-(2,4,5-trifluoro-3-hydroxyphenyl)-1,2,4-oxadiazol-3-yl)methanone]
517 | > 50000 | 370 | 7700 | O=C(c1noc(-c2cc(F)c(F)c(O)c2F)n1)N1CCO[C@H](C(F)(F)F)C1 [Example 46, (S)-(5-(2,4,5-Trifluoro-3-hydroxyphenyl)-1,2,4-oxadiazol-3-yl)(2-(trifluoromethyl)morpholino)methanone]
143 | 10500 | 370 | 5000 | CC(C)c1noc(C2=CCN(C(=O)c3noc(-c4cc(F)c(F)c(O)c4F)n3)CC2)n1 [Example 107, (4-(3-Isopropyl-1,2,4-oxadiazol-5-yl)-3,6-dihydropyridin-1(2H)-yl)(5-(2,4,5-trifluoro-3-hydroxyphenyl)-1,2,4-oxadiazol-3-yl)methanone]
41 | 89100 | 980 | > 50000 | O=C(c1cc(-c2ccc(F)c(O)c2)no1)N1CCC(c2ccccc2)C1 (stereo not drawn) [Example 6, (3-(4-Fluoro-3-hydroxyphenyl)isoxazol-5-yl)(3-phenylpyrrolidin-1-yl)methanone]
2780 | > 50000 | 5610 | > 50000 | O=C(c1noc(-c2cc(F)c(F)c(O)c2F)n1)N1CCOC2(CCOCC2)C1 [Example 53, (1,9-Dioxa-4-azaspiro[5.5]undecan-4-yl)(5-(2,4,5-trifluoro-3-hydroxyphenyl)-1,2,4-oxadiazol-3-yl)methanone]
48 | 5600 | 270 | 11200 | O=C(c1noc(-c2cc(F)c(F)c(O)c2F)n1)N1CCc2ccccc2C1 [Example 64, (3,4-Dihydroisoquinolin-2(1H)-yl)(5-(2,4,5-trifluoro-3-hydroxyphenyl)-1,2,4-oxadiazol-3-yl)methanone]
700 | > 50000 | 1460 | > 50000 | O=C(c1noc(-c2cc(F)c(F)c(O)c2F)n1)N1CCSCC1 [Example 40, Thiomorpholino(5-(2,4,5-trifluoro-3-hydroxyphenyl)-1,2,4-oxadiazol-3-yl)methanone]
1030 | > 50000 | 1320 | > 50000 | C[C@@H]1COC[C@H](C)N1C(=O)c1noc(-c2cc(F)c(F)c(O)c2F)n1 [Example 36, ((3R,5S)-3,5-Dimethylmorpholino)(5-(2,4,5-trifluoro-3-hydroxyphenyl)-1,2,4-oxadiazol-3-yl)methanone]
47 | 6700 | 610 | 25000 | O=C(c1cc(-c2cc(F)c(F)c(O)c2F)on1)N1CC[C@H](c2ccc(Cl)cc2)C1 [Example 8, (R)-(3-(4-Chlorophenyl)pyrrolidin-1-yl)(5-(2,4,5-trifluoro-3-hydroxyphenyl)isoxazol-3-yl)methanone]
640 | 42200 | 2220 | 4200 | CC(C)C1COCCN1C(=O)c1noc(-c2cc(F)c(F)c(O)c2F)n1 (stereo not drawn) [Example 35, (3-Isopropylmorpholino)(5-(2,4,5-trifluoro-3-hydroxyphenyl)-1,2,4-oxadiazol-3-yl)methanone]
308 | 32400 | 750 |  | O=C(c1nnc(-c2ccc(F)c(O)c2)o1)N1CC[C@H](c2ccccc2)C1 [Example 1, (R)-(5-(4-Fluoro-3-hydroxyphenyl)-1,3,4-oxadiazol-2-yl)(3-phenylpyrrolidin-1-yl)methanone]
40 | 15600 | 460 |  | N#Cc1c(C(=O)N2CCC(c3ccccc3)C2)noc1-c1ccc(F)c(O)c1 (stereo not drawn) [Example 13, 5-(4-Fluoro-3-hydroxyphenyl)-3-(3-phenylpyrrolidine-1-carbonyl)isoxazole-4-carbonitrile]
57 | 9600 | 540 |  | O=C(c1cc(-c2cc(F)c(F)c(O)c2F)on1)N1CC[C@H](c2ccccc2)C1 [Example 104, (R)-(3-Phenylpyrrolidin-1-yl)(5-(2,4,5-trifluoro-3-hydroxyphenyl)isoxazol-3-yl)methanone]
